Measurements published in patent US9139502B2, “Use of an urushiol compound in preparation of pharmaceutical compositions for inhibiting Smad3 phosphorylation” (Southern Hospital, Southern Medical University, priority 2013, dated 2015).

Key:
Smad3 = assay: Immunofluorescence staining of TGF-β1-induced Smad3 nuclear translocation; assay type: cell-based, rat; conditions: NRK52E cells, GQ-5 2.5 μM pre-treated 1 h, TGF-β1 10 ng/ml 2 h
Procedure: NRK52E cells were cultured in DMEM-Ham's medium supplemented with 10% fetal bovine serum. The cells reached at approximately 50% confluence were used for in vitro experiments. Cells were serum-starved for 12 h, and randomized into 3 groups: (1) Controls; (2) TGF-β1 only; (3) TGF-β1+GQ-5.
(2) TGF-β1 only: pre-treated with DMSO for 1 h, followed with TGF-β1 (10 ng/ml) for 2 h
(3) TGF-β1+GQ-5: pre-treated with GQ-5 (2.5 μM) for 1 h, followed with TGF-β1 (10 ng/ml) for 2 h
GQ-5 was dissolved in DMSO. Cells were treated as described Immunofluorescence staining was performed to examine the nuclear translocation of Smad2, Smad3, and Smad4.

Smad4 = assay: Western blot of Smad4 expression in UUO kidneys; assay type: in vivo, rat; conditions: UUO rats, GQ-5 40 mg/kg daily i.p. right after UUO, sacrificed day 14
Procedure: (§1) Male Sprague-Dawley rats with body weight 200 to 250 g were randomized into 3 groups (n=6 in each group): (1) sham operated rats; (2) UUO rats; (3) UUO+GQ-5 rats.
(§2) GQ-5 was dissolved in 5% propylene glycol.
(§3) (3) UUO+GQ-5 rats: daily intraperitoneal injection of GQ-5 (40 mg/kg body weight) right after UUO;
(§4) UUO was performed using an established protocol as described. GQ-5 was dissolved in 5% propylene glycol. Rats were administrated with GQ-5 as described before. All the rats were sacrificed 14 days after UUO. Western blot analyses were performed to examine the Smad4, Smad7 expression and p38, PI3K, ERK phosphorylation.

ERK = assay: Western blot of ERK phosphorylation in UUO kidneys; assay type: in vivo, rat; conditions: UUO rats, GQ-5 40 mg/kg daily i.p. right after UUO, sacrificed day 14
Procedure: as §1, §2, §3, §4

p38 = assay: Western blot of TGF-β1-induced p38 phosphorylation in vitro; assay type: cell-based, rat; conditions: NRK52E and NRK49F cells, GQ-5 2.5 nM pre-treated 1 h, TGF-β1 10 ng/ml 1 h
Procedure: NRK52E and NRK49F cells were cultured in DMEM-Ham's medium (Gibco, Life Techologies, NY, USA) supplemented with 10% fetal bovine serum (Gibco, Life Techologies, NY, USA). The cells reached at approximately 50% confluence were used for in vitro experiments. Cells were serum-starved for 12 h, and randomized into 4 groups: (1) Controls; (2) GQ-5 only; (3) TGF-β1 only; (4) TGF-β1+GQ-5
(2) GQ-5 only: pre-treated with GQ-5 (2.5 μM) for 1 h, followed with DMEM for 1 h
(3) TGF-β1 only: pre-treated with DMSO (0.1%) for 1 h, followed with TGF-β1 (10 ng/ml) for 1 h
(4) TGF-β1+GQ-5: pre-treated with GQ-5 (2.5 nM) for 1 h, followed with TGF-β1 (10 ng/ml) for 1 h
GQ-5 was dissolved in DMSO. Cells were treated as described. cell lysates were immunoblotted with antibodies against Smad4, Smad7, phospho-p38, p38, phospho-PI3K, PI3K, phosphor-ERK, and ERK.

PI3K = assay: Western blot of PI3K phosphorylation in UUO kidneys; assay type: in vivo, rat; conditions: UUO rats, GQ-5 40 mg/kg daily i.p. right after UUO, sacrificed day 14
Procedure: as §1, §2, §3, §4

fibronectin = assay: Fibronectin expression in UUO kidney tissue (real-time PCR, immunohistochemistry, Western blot); assay type: in vivo, rat; conditions: UUO rats, GQ-5 40 mg/kg daily i.p., sacrificed day 14
Procedure: Male Sprague-Dawley rats were randomized into 4 groups (n=6 in each group): (1) sham operated rats; (2) UUO rats; (3) UUO+GQ-5 d1 rats; (4) UUO+GQ-5 d7 rats.
as §2
(3) UUO+GQ-5 d1 rats: daily intraperitoneal injection of GQ-5 (40 mg/kg body weight) right after UUO;
(4) UUO+GQ-5 d7 rats: daily intraperitoneal injection of GQ-5 (40 mg/kg body weight) 7 days after UUO.
UUO was performed using an established protocol as described. GQ-5 was dissolved in 5% propylene glycol. Rats were administrated with GQ-5 as described before. All the rats were sacrificed 14 days after UUO. HE staining, Masson trichrome staining were performed to examine the renal tissue injury, and Real-time PCR analyses, immunohistochemical staining, and Western blot analyses were performed to examine α-SMA, collagen I and fibronectin expression in kidney tissue

C57BL/6J mice = assay: Single-dose toxicity of GQ-5 in mice; assay type: in vivo; conditions: single intraperitoneal dose up to 800 mg/kg, 7-day observation
Procedure: To test the toxicity of GQ-5, 20 C57BL/6J little male mice which are […], healthy and clean, their weights are between 20 and 22 gram. Antisepsis the feed and water, before and in the layoff period of the test, all the mice should be feed under the normal feeding condition.
Dissolve GQ-5 in 0.5% propylene glycol, this liquor is given to little mice by intraperitoneal injection. The dosage of GQ-5 was 10, 40, 200, and 800 mg/kg body weight of mice. After administration, they are observed for 7 days.

α-SMA = assay: Real-time PCR of TGF-β1-induced α-SMA mRNA in vitro; assay type: cell-based, rat; conditions: NRK 52E and NRK 49F cells, GQ-5 0.1-2.5 μM pre-treated 1 h, TGF-β1 10 ng/ml 36 h
Procedure: NRK52E and NRK49F cells were cultured in DMEM-Ham's medium supplemented with 10% fetal bovine serum. The cells reached at approximately 50% confluence were used for in vitro experiments. Cells were serum-starved for 12 h, and randomized into 6 groups: (1) Controls; (2) GQ-5 only; (3) TGF-β1 only; (4) TGF-β1+GQ-5 0.1 μM; (5) TGF-β1+GQ-5 0.5 μM; (6) TGF-β1+GQ-5 2.5 μM
(2) GQ-5 only: pre-treated with GQ-5 (2.5 μM) for 1 h, followed with DMEM for 36 h
(3) TGF-β1 only: pre-treated with DMSO for 1 h, followed with TGF-β1 (10 ng/ml) for 36 h
(4) TGF-β1+GQ-5 0.1 μM: pre-treated with GQ-5 (0.1 μM) for 1 h, followed with TGF-β1 (10 ng/ml) for 36 h
(5) TGF-β1+GQ-5 0.5 μM: pre-treated with GQ-5 (0.5 μM) for 1 h, followed with TGF-β1 (10 ng/ml) for 36 h
(6) TGF-β1+GQ-5 2.5 μM: pre-treated with GQ-5 (2.5 μM) for 1 h, followed with TGF-β1 (10 ng/ml) for 36 h
GQ-5 was dissolved in DMSO. Cells were treated as described. Cells were collected for mRNA extraction. Real-rime PCR was performed to examine the mRNA expression of α-SMA, collagen I and fibronectin.

Question: `CCCCCC/C=C\CCCCCCCc1cccc(O)c1O` [GQ-5, 3-[(Z)-pentadec-8-enyl]catechol] was tested. Which “TGF-β1-induced Smad3 nuclear translocation” value (Smad3) did it give?
Answer: significantly reduced

Question: And the “expression of Smad4” value (Smad4)?
Answer: did not affect

Question: And the “phosphorylation of ERK” value (ERK)?
Answer: did not affect

Question: And the “TGF-β1-induced phosphorylation of p38” value (p38)?
Answer: did not affect

Question: And the “phosphorylation of PI3K” value (PI3K)?
Answer: did not affect

Question: And the “up-regulation of fibronectin at both mRNA and protein level” value (fibronectin)?
Answer: significantly inhibited

Question: What about the “death or adverse event” value (C57BL/6J mice) of the same compound?
Answer: did not die or developed any adverse event

Question: What about the “TGF-β1-induced mRNA expression of α-SMA” value (α-SMA) of the same compound?
Answer: significantly inhibited
